Reference: US11096931B2, “Amide derivatives useful in the treatment of HBV infection or HBV-induced diseases” (Janssen Sciences Ireland Unlimited Company, priority 2019, dated 2021)
≈ marks a conversion by molar mass, not a printed value. Where “and” joins values, the source holds several entries; their conditions need not be identical. Identical values can stand only once. Like-named read-outs stand apart in the source and are kept apart here.

Key:
[1] = tested on: HBV; assay: anti HBV activity, HepG2.117 cell line, intracellular HBV DNA by real-time PCR; type: cell-based, hepatitis B virus; conditions: Hepatitis B virus, 72 h; mean value; HepG2.117 cells, 3 days of treatment, intracellular HBV DNA; read-out: HBV-AVE-HepG2.117_intra_EC50
Method: The anti HBV activity was measured using the HepG2.117 cell line, a stable, inducible HBV producing cell line, which replicates HBV in the absence of doxicycline (Tet-off system). The HepG2 cell line is available from ATCC® under number HB-8065. Transfection of the HepG2 cell line can be as described in Sun and Nassal 2006 Journal of Hepatology 45 (2006) 636-645 “Stable HepG2-and Huh7-based human hepatoma cell lines for efficient regulated expression of infectious hepatitis B virus”.
For the antiviral assay, HBV replication was induced, followed by a treatment with serially diluted compound in 96-well plates. After 3 days of treatment, the antiviral activity was determined by quantification of intracellular HBV DNA using real-time PCR and an HBV specific primer set and probe.

[2] = Cytotoxicity, ATPlite cell viability; type: cell-based; conditions: human, mean value, HepG2 or HepG2.117 cells
Method: Cytotoxicity of the compounds was tested using HepG2 or HepG2.117 cells, incubated for 4 days in the presence of compounds. The viability of the cells was assessed using the Perkin Elmer ATPlite Luminescence Assay System.”

[3] = HT EQ solubility assay; type: physicochemical; conditions: read-out: HtEq Sol; for solubility thermodynamic at 24 h: stirred 24 h
Method: The assay was run in triplicate and was semi-automated using the Tecan Fluent for all liquid handling. 20 μL of 10 mM stock solution was dispensed in a 500 μL 96 well plate. DMSO was evaporated (Genevac). A stir bar and 400 μL of buffer/biorelevant media was added. The solution was stirred for 72 h (pH2 and pH7) or 24 h (FaSSIF and FeSSIF). The solution was filtered and the filtrate was quantified by UPLC/UV using a three-points calibration curve.

[4] = Pharmacokinetics assessment in mice; type: in vivo, C57BL mice; conditions: mouse; for clearance / AUC(0-t) / Cmax: male, C57BL, plasma; for clearance: IV (PEG400) 2.5 mg/kg
Method: The pharmacokinetic profile was evaluated in fed male C57BL mice (n=3/group). Mice were i.v. injected with test compound at 2.5 mg/kg, formulated as solution in PEG400/water (70/30), and blood samples were collected from the dorsal metatarsal vein at 0.05, 0.117, 0.333, 1, 2, 4, 7, and 24 hours into EDTA-containing microcentrifuge tubes. Test compound was administered p.o. at 10 mg/kg and 50 mg/kg, formulated as solution in PEG400, and blood samples were collected from the dorsal metatarsal vein at 0.5, 1, 2, 4, 7, 12 and 24 hours into EDTA-containing microcentrifuge tubes. The blood samples were immediately centrifuged at 4° C. and the plasma was stored at −80° C. Compound concentrations from the plasma samples were analyzed using LC-MS/MS (LCMS-8050 instrument). Individual plasma concentration-time profiles were subjected to a non-compartmental pharmacokinetic analysis (NCA) using Phoenix™ WinNonlin version 6.1. (Certara, N.J., USA).

[5] = Thermodynamic solubility assay; type: physicochemical; conditions: organic solvent or mixture, thermodynamic from solid; thermodynamic solubility in PEG400
Method: To x mg of compound 500 μL of solvent was added (max. conc. y mg/mL). After 24 h/72 h shaking/stirring the solutions were filtered (0.45 μm membrane) and the pH was recorded. The filtrate was diluted to a maximum conc. of 100 μg/mL (CH3CN/0.1N HCl 1/1) and the samples were quantified by LC/UV. Calibration standards were 100 μg/mL, 10 μg/mL and 1 μg/mL.

[6] = buffer pH 2, aqueous buffer, thermodynamic from solid, pH = 2, stirred 72 h
[7] = buffer pH 7, aqueous buffer, thermodynamic from solid, pH = 7, stirred 72 h
[8] = thermodynamic from solid, Fessif
[9] = thermodynamic from solid, fassif

SMILES	EC50 [1] [nM]	CC50 at 4 days [2] [µM]	also measured
Cc1c(C(=O)C(=O)NC2(c3cn[nH]n3)CC(F)(F)C2)cn(C)c1C(=O)Nc1ccc(F)c(C#N)c1 [Compound 12]	10	> 50	solubility thermodynamic at 24 h ([3]; Fessif): 41.2 µM and 25.1 µM; solubility thermodynamic at 24 h ([3]; fassif): 10.2 µM and 5.4 µM
Cc1c(C(=O)C(=O)NC2(c3cn[nH]n3)CC(F)(F)C2)cn(C)c1C(=O)Nc1ccc(F)c(Cl)c1 [Compound 13]	3	26.8	clearance [4]: 10.2 mL/min/kg; AUC(0-t) ([4]; PO (PEG400) 10 mg/kg): 12500 ng·h/mL; Cmax ([4]; PO (PEG400) 10 mg/kg): 2480 ng/mL; F ([4]; PO (PEG400) 10 mg/kg): 77.3 +/− 19.8%; F ([4]; PO (PEG400) 50 mg/kg): 121 +/− 50%; solubility thermodynamic at 72 h [3, 6]: 1.1 µM (≈ 0.544 µg/mL); solubility thermodynamic at 72 h [3, 7]: < 0.6 µM; solubility thermodynamic at 24 h [3, 8]: 150 µM (≈ 74.5 µg/mL); solubility thermodynamic at 24 h [3, 9]: 39.8 µM (≈ 19.7 µg/mL); solubility [5]: > 36.4 mg/mL
Cc1nc(C2(NC(=O)C(=O)c3cc(C(=O)Nc4ccc(F)c(C#N)c4)n(C)c3)CC(F)(F)C2)n[nH]1 [Compound 22]	124	29.5	
Cc1c(C(=O)C(=O)NC2(c3cn[nH]n3)CC(F)(F)C2)c(Cl)c(C(=O)Nc2ccc(F)c(C#N)c2)n1C [Compound 23]	4	> 50	
Cn1cc(C(=O)C(=O)NC(CC(F)F)c2cn[nH]n2)cc1C(=O)Nc1ccc(F)c(C#N)c1 (stereo not drawn) [Compound 24RS]	60	22.1	
Cc1c(C(=O)C(=O)NC2(c3c[nH]nn3)CC(F)(F)C2)c(C)n(C)c1C(=O)Nc1ccc(F)c(C#N)c1 [Compound 28]	8	> 50	clearance [4]: 73.3 mL/min/kg; AUC(0-t) ([4]; PO (PEG400) 10 mg/kg): 153 ng·h/mL; Cmax ([4]; PO (PEG400) 10 mg/kg): 85 ng/mL; AUC(0-t) ([4]; PO (PEG400) 50 mg/kg): 1850 ng·h/mL; Cmax ([4]; PO (PEG400) 50 mg/kg): 1630 ng/mL; F ([4]; PO (PEG400) 10 mg/kg): 6.05 +/− 3.56%; F ([4]; PO (PEG400) 50 mg/kg): 14.6 +/− 12^ %; solubility thermodynamic at 72 h [3, 6]: < 5 µM; solubility thermodynamic at 72 h [3, 7]: < 5 µM; solubility thermodynamic at 24 h [3, 8]: 277 µM (≈ 138 µg/mL); solubility thermodynamic at 24 h [3, 9]: 46.8 µM (≈ 23.4 µg/mL); solubility [5]: > 33.9 mg/mL
Cc1c(C(=O)C(=O)NC(CC(F)F)c2cn[nH]n2)c(C)n(C)c1C(=O)Nc1ccc(F)c(C#N)c1 (stereo not drawn) [Compound 29]	9	> 50	
Cn1cc(C(=O)C(=O)NC2(c3nc[nH]n3)CC(F)(F)C2)cc1C(=O)Nc1ccc(F)c(C#N)c1 [Compound 30]	142	31.1	
Cn1cc(C(=O)C(=O)NC2(c3cn[nH]n3)CC(F)(F)C2)c(Br)c1C(=O)Nc1ccc(F)c(C#N)c1 [Compound 31]	3	> 50	
COc1c(C(=O)C(=O)NC2(c3cn[nH]n3)CC(F)(F)C2)cn(C)c1C(=O)Nc1ccc(F)c(C#N)c1 [Compound 32]	27	31.7	
Cc1c(C(=O)C(=O)NC2(c3cn[nH]n3)CC(F)(F)C2)cn(C)c1C(=O)Nc1ccc(F)c(Br)c1 [Compound 34]	4	26.3	
Cc1c(C(=O)C(=O)NC2(c3cn[nH]n3)CC(F)(F)C2)c(Cl)n(C)c1C(=O)Nc1ccc(F)c(Cl)c1 [Compound 35]	4	5.8	
Cn1cc(C(=O)C(=O)NC2(c3ccccc3)CC(F)(F)C2)cc1C(=O)Nc1ccc(F)c(C#N)c1 [Compound 36]	10	1.1	
Cn1cc(C(=O)C(=O)NC2(c3cn[nH]n3)CC(F)(F)C2)c(C2CC2)c1C(=O)Nc1ccc(F)c(C#N)c1 [Compound 38]	24	> 50	
Cc1c(C(=O)C(=O)NC2(c3cn[nH]n3)CC(F)(F)C2)c(Cl)n(C)c1C(=O)Nc1ccc(F)c(Br)c1 [Compound 40]	4	6.6	
Cc1c(C(=O)C(=O)NC2(c3cn[nH]n3)CC(F)(F)C2)c(Br)n(C)c1C(=O)Nc1ccc(F)c(Cl)c1 [Compound 41]	2	7.2	
Cc1c(C(=O)C(=O)NC2(c3cn[nH]n3)CC(F)(F)C2)c(F)c(C(=O)Nc2ccc(F)c(C#N)c2)n1C [Compound 42]	2	> 50	

SMILES	EC50 [1] [nM]	CC50 at 4 days [2] [µM]	also measured
Cn1cc(C(=O)C(=O)NC2(c3ncc[nH]3)CC(F)(F)C2)cc1C(=O)Nc1ccc(F)c(C#N)c1 [Compound 43]	315	6.6	
Cc1c(C(=O)C(=O)NC(CC(F)(F)F)c2cn[nH]n2)c(C)n(C)c1C(=O)Nc1ccc(F)c(C#N)c1 (stereo not drawn) [Compound 44RS]	4	> 50	
Cc1c(C(=O)C(=O)NC2(c3cn[nH]n3)CC(F)(F)C2)cc(C(=O)Nc2ccc(F)c(C#N)c2)n1C [Compound 45]	9	> 50	
Cc1c(C(=O)C(=O)NC2(c3cn[nH]n3)CC(F)(F)C2)cn(C)c1C(=O)Nc1ccc(F)c(C#N)c1F [Compound 46]	11	> 50	
Cn1c(C#N)c(C(=O)C(=O)NC2(c3cn[nH]n3)CC(F)(F)C2)c(F)c1C(=O)Nc1ccc(F)c(C#N)c1 [Compound 50]	1280	> 50	
Cc1c(C(=O)C(=O)NC(C)(c2cn[nH]n2)C(F)(F)F)cn(C)c1C(=O)Nc1ccc(F)c(C#N)c1 (stereo not drawn) [Compound 51]	13	> 50	
Cn1c(C(=O)Nc2ccc(F)c(C#N)c2)c(F)c(C(=O)C(=O)NC2(c3cn[nH]n3)CC(F)(F)C2)c1C1CC1 [Compound 52]	9	> 40.6	
Cc1c(C(=O)C(=O)NC2(c3cn[nH]n3)CC(F)(F)C2)cn(C)c1C(=O)Nc1ccnc(C(F)F)c1 [Compound 53]	33	> 50	
Cc1c(C(=O)C(=O)NC2(c3cn[nH]n3)CC(F)(F)C2)c(C2CC2)n(C)c1C(=O)Nc1ccc(F)c(Cl)c1 [Compound 54]	3	26.3	
Cc1c(C(=O)C(=O)NC2(c3cn[nH]n3)CC(F)(F)C2)c(C#N)n(C)c1C(=O)Nc1ccc(F)c(Cl)c1 [Compound 55]	809	> 50	
Cn1cc(C(=O)C(=O)NC2(c3c[nH]cn3)CC(F)(F)C2)cc1C(=O)Nc1ccc(F)c(C#N)c1 [Compound 56]	44	20	
Cc1c(C(=O)C(=O)N[C@]2(c3cn[nH]n3)C[C@H](F)C2)cn(C)c1C(=O)Nc1ccc(F)c(C#N)c1 [Compound 57cis]	12	> 50	
Cc1c(C(=O)C(=O)N[C@]2(c3cn[nH]n3)C[C@@H](F)C2)cn(C)c1C(=O)Nc1ccc(F)c(C#N)c1 [Compound 57trans]	7	> 50	
Cc1c(C(=O)C(=O)N[C@]2(c3cn[nH]n3)C[C@H](O)C2)cn(C)c1C(=O)Nc1ccc(F)c(C#N)c1 [Compound 58cis]	90	> 50	
Cc1c(C(=O)C(=O)N[C@]2(c3cn[nH]n3)C[C@@H](O)C2)cn(C)c1C(=O)Nc1ccc(F)c(C#N)c1 [Compound 58trans]	88	> 50	
Cc1cc(NC(=O)c2cc(C(=O)C(=O)NCc3cn[nH]n3)cn2C)ccc1F [Ref. 59, reference compound]	583	> 50	
